Assay results: ChEMBL document CHEMBL1152017, “Peptide-binding antibiotics: A solid-phase assay for screening libraries of vancomycin mimics for selective d-Ala-d-Ala binding” (Bioorg Med Chem Lett, 1997)

Experiment: The compound was tested for binding constant against d-Ala-d-Ala termini on bacterial cell surface
`C[C@@H](NC(=O)[C@@H](C)NC(=O)CNS(=O)(=O)c1cccc2c(N(C)C)cccc12)C(=O)O` gave a KA of 1.3 mM⁻¹.
Work on `C[C@H](NC(=O)CNS(=O)(=O)c1cccc2c(N(C)C)cccc12)C(=O)N[C@H](C)C(=O)O` yielded a KA of 16 mM⁻¹.
With `C[C@H](NC(=O)[C@H](C)NC(=O)CNS(=O)(=O)c1cccc2c(N(C)C)cccc12)C(=O)O` the KA was 1.1 mM⁻¹.
Compound `C[C@H](NC(=O)CNS(=O)(=O)c1cccc2c(N(C)C)cccc12)C(=O)O[C@H](C)C(=O)O` has a KA of less than 0.02 mM⁻¹.
